According to patent US11738099B2, “Molecular probes and methods of use” (CASE WESTERN RESERVE UNIVERSITY, priority 2014, dated 2023):
“Also recorded” adds a separate entry of the source. Each block holds one compound with its values, some of them ahead of it. Bridges are numbered along the chain shown (N, C = ends). Where no end group is shown, it is not given here.

Legend:
[1] = Relaxivity at 1.5T in water, 37° C.; format: physicochemical
Description: Relaxivity is an important parameter for an MR contrast agent. It reflects how the relaxation rate of the surrounding water proton changes as a function of concentration, and it is directly associated with the agent's contrast enhancing capability during imaging. The relaxivity of the 4 contrast agents was tested at 37° C. in water and compared to Gd(HP-DO3A), Gd-DOTA and ZD2-Gd(HP-DO3A) (FIG. 26). […] Compared to Gd(HP-DO3A), Gd-DOTA, the size increase of the targeted contrast agents due to the peptides and PEG spacer could result in an increase of τR,^[42, 43] thus leading to higher relaxivities.

[2] = In vivo transmetallation and urinary excretion; parameters: species or system mouse; details: 0.1 mmol-Gd/kg
Description: Balb/c mice (Charles River Laboratories, Wilmington, Mass., USA) were randomly divided into groups of ZD2-Gd(HP-DO3A) and ProHance (n=5) and placed in the metabolism cages, 48 hours prior to injection. […] Urine samples were collected at 12 h pre-injection, and then 8, 24, 48, and 72 h post-injection from the metabolic box. The collected urine samples were centrifuged at 4,000 rpm for 15 min. The concentration of Gd(III), Zn(II), Cu(H), and Ca(II) in the supernatant of the urine samples was determined by ICP-OES after appropriate dilutions.

EDB fragment = EDB fragment (Homo sapiens, UniProt P02751); test: Peptide ELISA of HRP-conjugated peptides on coated EDB; format: binding; details: HRP conjugates
Sequence of EDB fragment (P02751 1271-1359 limits assumed): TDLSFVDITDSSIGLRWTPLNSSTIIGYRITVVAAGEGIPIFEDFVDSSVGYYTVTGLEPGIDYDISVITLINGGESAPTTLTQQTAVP
Description: A linear version of ZD2 (CTVRTSADA) SEQ ID NO: 42 was synthesized so that sulfhydryl group on cysteine could be used for conjugation with maleimide-activated […] (Sigma-Aldrich). Conjugation was carried out as instructed in the manual. The product of conjugation, ZD2-HRP, was used for peptide ELISA assay after coating a 96-well plate with purified EDB. 0.5% BSA in PBS was used to block non-specific binding for later steps. 0.39 μM to 50 μM of ZD2-HRP was incubated with coated EDB for an hour followed by extensive washing with TBST (0.1%). ABTS substrate was added subsequently and allowed to react for 30 min before the absorbance of solution in each well were measured at 415 nm. Non-coated wells added with ABTS were used as blank.
Cyclic ZD2 peptide (CTVRTSADC) (SEQ ID NO: 10) was synthesized using standard solid phase peptide chemistry and was characterized by MALDI-TOF mass spectrometry (FIG. 1C). The peptide was then labeled with a fluorescence chromophore cyanine 5 (Cy5) through a short PEG linker (NH2—(CH2CH2O)—CH2CH2COOH) to give a peptide fluorescence probe ZD2-Cy5. The peptide was also conjugated to peroxidase (ZD2-HRP) and the binding affinity of the peptide to EDB fragment was determined using peptide ELISA assay.
Similarly, CERAK-HRP is synthesized as a control.

TGFβ induced 4T1 cells = test: Binding of Cy5 probes to TGFβ induced 4T1 cells in vitro; format: cell-based; details: cell culture
Description: As tumor cells produce EDB-FN to promote its migration, we further validated if Cy5 labeled l-ZD2 (l-ZD2-Cy5) can bind to TGFβ induced 4T1 cells in vitro. […] To explain this, we hypothesize that in this form of cell culture, no clot formation can take action to provide binding sites for CREKA-Cy5. To validate our hypothesis, we further produced a 3D culture system that mimics the “soil” of metastatic tumor. In the 3D culture system, 4T1 cells were cultured in a microenvironment containing TGFβ, collagen, and fibrin. […] In overall, these evidences point to the conclusion that the use of EDB-FN for targeting micrometastasis may be advantageous compared with Fibronectin-Fibrin complexes in that EDB-FN appears earlier than Fibronectin-Fibrin in the pre-metastatic niche.

[3] = test system: LNCaP prostate tumor xenografts; test: In vivo T1-weighted MRI at 7T, LNCaP tumors; parameters: species or system mouse; details: 0.1 mmol/kg i.v., up to 30 min, 7T
Description: (§1) All MRI experiments were performed on a horizontal 7T Bruker scanner (Bruker Biospin Co., Billerica, Mass.). Imaging experiments were performed when the tumor size reached 5-8 mm in diameter. ZD2-Gd(HP-DO3A) was administered intravenously at the dose of 0.1 mmol/kg after acquiring pre-contrast images. Post-contrast images were obtained at 10 min interval up to 30 min. The axial slices of mouse at the tumor location were acquired using T1-weighted spin echo sequence with the following parameters: field of view (FOV): 3 cm; slice thickness: 1.2 mm; interslice distance: 1.2 mm; TR: 500 ms, TE: 8.1 ms; flip angle: 90°; average: 2; matrix size: 128×128. Contrast-to-noise ratio (CNR) at each time point was calculated by subtraction of the average signal intensity in the tumor and muscle, divided by the standard deviation of image noise. ProHance® (gadoteridol) was used as a control in the imaging experiments.

[4] = test system: PC3 prostate tumor xenografts; test: In vivo T1-weighted MRI at 7T, PC3 tumors; parameters: species or system mouse
Description: as §1

[5] = test system: TGFβ1-induced PC3 cancer cells; test: In vitro cellular binding, confocal microscopy; format: cell-based, human
Description: PC3 cell line was purchased from American Type Culture Collection (ATCC, Manassas, Va., USA), and maintained in RPMI/10% FBS medium. The cells were transfected with lentivirus to express green fluorescent protein (GFP) at least 48 h prior to harvesting. To induce EMT, PC3 cells were cultured in the presence of TGFβ1 (5 ng/ml) for 5 days. For in vitro binding assay, nuclei of cells were stained with Hoechst 33342 (Life Technologies, Brooklyn, N.Y., USA) 24 h prior to adding 500 nM ZD2-Cy5. Cells were maintained in medium containing ZD2-Cy5 for 24 h and monitored with confocal microscopy. Intense shaking was avoided for live-cell binding study to retain secreted EDB-FN on the glass.

[6] = test system: human prostate tumor sections; test: Histological staining of human prostate sections
Source text: Human prostate sections were acquired from OriGene (Rockville, Md., USA). Antibodies used in this study include mouse monoclonal anti-Fibronectin antibody (BC-1, ab154210, Abcam, Cambridge, UK), Rhodamine-Red-X conjugated goat polyclonal anti-rabbit IgG (H+L) (Jackson Immuno Research Lab. West Grove, Pa., USA), and FITC conjugated goat polyclonal anti-mouse Fc (ab97264, Abcam). Frozen tissue section ([…]) imbedded in OCT was used for immunostaining and peptide staining. Paraffin embedded samples were de-paraffinized and processed with antigen retrieval using general methods. Sections were permeabilized and fixed with cold acetone followed by 0.5% BSA blocking for 1 hr at room temperature. Peptide staining was carried at the concentration of 5 uM. Slides were counter-stained with DAPI and mounted with coverslip using Prolong Gold regent (Invitrogen) before imaging. Stained tissue was imaged on an Olympus FV1000 confocal laser scanning microscope. GFP was observed using […] and the emission wavelength was read from 480 to 495 nm and represented as green. DAPI was observed using 405 nm laser and the emission wavelength was read from 450 to 470 nm and expressed as blue. Cy5.0 was observed using 635 nm laser and the emission wavelength was read from 655 to 755 nm and expressed as red.

[7] = test system: PC3-GFP flank tumor xenografts
Description: NIH athymic male nude mice, age 4-5 weeks, were maintained at the Athymic Animal Core Facility at Case Western Reserve University according to the animal protocols approved by the Institutional Animal Care and Use Committee (IACUC). For whole-body fluorescent imaging study, a flank tumor model was constructed. Each mouse was subcutaneously implanted in both flanks with 2×10^6 PC3-GFP cells mixed with an equal volume of in a mixture of PBS (50 μL culture medium and 50 μL PBS). Two to three weeks after inoculation, tumors reached an average size of 0.5 cm in diameter. The mice were used for imaging with Maestro FLEX In vivo Imaging System (Cambridge Research & Instrumentation, Inc. Woburn, Mass., USA) to monitor the targeting effect of ZD2 from 0 to 24 hours. Mice were intravenously injected with ZD2-Cy5 or CERAK-Cy5 (0.3 μmol/kg body weight). After 5 h, the mice were sacrificed and the tumor and various organs were imaged with the Maestro FLEX In vivo Imaging System.

r1 [1]: 2.9 mM⁻¹ s⁻¹
Compound: O=C([O-])CN1CCN(CC(=O)[O-])CCN(CC(=O)O)CCN(CC(=O)[O-])CC1.[Gd+3] [Gd-DOTA, reference compound]

Compound: CNC(=O)CN(CCN(CCN(CC(=O)[O-])CC(=O)NC)CC(=O)[O-])CC(=O)[O-].[Gd+3] [Omniscan, reference compound]
urine concentration of endogenous metal ions post-injection vs pre-injection [2]: significant increase in Zn(II) concentration

binding to EDB protein (EDB fragment): no observable binding
Compound: CERAK-HRP: control peptide CERAK conjugated to HRP (also: conjugated to HRP) [reference compound]

Compound: CREKA-Cy5: Cy5 probe of CREKA peptide, targets fibronectin-fibrin complexes (also: Cy5 conjugate) [reference compound]
binding to induced 4T1 cells (TGFβ induced 4T1 cells): no binding

Compound: CREKA-Gd(HP-DO3A): fibrin-FN clot targeting contrast agent, CREKA (Cys-Arg-Glu-Lys-Ala) conjugated to Gd(HP-DO3A) (also: conjugated to Gd(HP-DO3A) (Gd complex)) [reference compound]
signal enhancement in LNCaP tumors [3]: significant contrast enhancement in the periphery
signal enhancement in PC3 tumors ([4]; 0.1 mmol/kg i.v., up to 30 min, 7T): significant contrast enhancement in the periphery
difference in signal enhancement between the PC3 and LNCaP tumors ([4]; mouse, in vivo): no significant difference

Compound: GVK-(Gd-DOTA): GVK peptide, PEG spacer, p-NCS-Bz-DOTA-GA, Gd complex (GVKSYNE; also: PEG spacer, p-NCS-Bz-DOTA-GA, Gd complex)
r1 [1]: 4.3 mM⁻¹ s⁻¹

Compound: IGK-(Gd-DOTA): IGK peptide, PEG spacer, p-NCS-Bz-DOTA-GA, Gd complex (IGKTNTL; also: PEG spacer, p-NCS-Bz-DOTA-GA, Gd complex)
r1 [1]: 4.6 mM⁻¹ s⁻¹

Compound: ZD2-(Gd-DOTA): ZD2 peptide, PEG spacer, p-NCS-Bz-DOTA-GA, Gd complex (TVRTSAD; also: PEG spacer, p-NCS-Bz-DOTA-GA, Gd complex; listed as Homo sapiens)
r1 [1]: 4.1 mM⁻¹ s⁻¹

tumor binding after blocking sections with BC-1 ([6]; competitive staining): inhibited
Compound: ZD2-Cy5: cyclic ZD2 (CTVRTSADC) labeled with Cy5 through a short PEG linker (CTVRTSADC-OH; disulfide 1-9 (inferred); not fully specified (N-terminus))
binding to the periphery of PC3 cells ([5]; TGFβ1-induced (post-EMT) PC3 cells, vs untreated cells): substantially more binding; also recorded: strong binding
binding to PC3 cells ([5]; uninduced cells): non-binding
staining of normal glands / BPH sections ([6]; 5 uM): unstained
staining of human prostate tumor sections ([6]; high Gleason score (GS7, GS9), 5 uM): strong staining; also recorded: strong binding
accumulation in tumor, whole-body fluorescence imaging ([7]; 1.5 h after intravenous injection): significantly high accumulation
tumor accumulation, ex vivo Cy5 signal of tumor and organs ([7]; 5 hours after injection): specific accumulation
tumor to normal (T/N) ratio of Cy5 signal ([7]; maintained for up to 24 hours, compared with CERAK-Cy5): Relatively high
accumulation in the liver or lung ([7]; mouse, in vivo): Little accumulation
